# In patent US20240199587A1, “HETEROCYCLIC COMPOUNDS” (Hoffmann-La Roche Inc., priority 2021, published 2024):
# Molecular target: T1, MAGL (Homo sapiens, UniProt Q99685)
# T1 sequence (Q99685 1-303): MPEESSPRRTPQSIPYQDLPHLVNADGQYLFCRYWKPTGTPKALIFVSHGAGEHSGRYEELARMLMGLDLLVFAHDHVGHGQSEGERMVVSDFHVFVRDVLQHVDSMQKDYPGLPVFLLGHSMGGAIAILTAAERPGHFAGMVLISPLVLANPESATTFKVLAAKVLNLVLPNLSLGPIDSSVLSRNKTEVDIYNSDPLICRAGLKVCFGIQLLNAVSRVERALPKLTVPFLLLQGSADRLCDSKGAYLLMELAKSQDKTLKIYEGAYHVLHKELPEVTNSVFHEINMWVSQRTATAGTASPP
# Assay: 2-AG assay (MAGL inhibitory activity, hydrolysis of 2-arachidonoylglycerol to arachidonic acid followed by mass spectrometry)
# Type: biochemical
# Conditions: 8 μM 2-arachidonoylglycerol, 15 min pre-incubation, 30 min incubation at RT, RapidFire MS readout
# Summary of the method: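 Arachidonic acid released from 8 μM 2-arachidonoylglycerol was quantified by online SPE triple-quadrupole MS (negative ESI, 303.1→259.1), normalised to d8-arachidonic acid internal standard. Reaction ran 30 min at RT after 15 min RT compound pre-incubation with […] MAGL in TRIS/EDTA/Tween-20 buffer, 2.5% DMSO.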
row,Structure (SMILES),IC50
1,"CNC(=O)C(c1ccccc1)N1CC2(CN(C(=O)N3CC4(CC(n5cnc(C6CC6)n5)C4)C3)C2)C1 (stereo not drawn) [Example 311, 2-[2-[6-(3-cyclopropyl-1,2,4-triazol-1-yl)-2-azaspiro[3.3]heptane-2-carbonyl]-2,6-diazaspiro[3.3]heptan-6-yl]-N-methyl-2-phenyl-acetamide]",176 nM
2,O=C(N1CC2(CC(n3cnc(C4CC4)n3)C2)C1)N1CC2(CCN(Cc3ccc(C(F)(F)F)nc3)C2)C1 [Example 434],3.37 nM

# Further lines, results first:
row,IC50,Structure (SMILES)
1,2.6 nM,"O=C(N1CC(Oc2cccc(C(F)(F)F)c2Cl)C1)N1CC2(CC(n3cnc(C4CC4)n3)C2)C1 [Example 222, (3-(2-chloro-3-(trifluoromethyl)phenoxy)azetidin-1-yl)(6-(3-cyclopropyl-1H-1,2,4-triazol-1-yl)-2-azaspiro[3.3]heptan-2-yl)methanone]"
2,20 nM,CC(F)(F)c1ccc(C2CN(C(=O)N3CC4(CC(n5cnc(C6CC6)n5)C4)C3)C2)cc1 [Example 35]
3,129 nM,"NC(=O)[C@H](c1ccc(F)cc1)N1CCN(C(=O)N2CC3(CC(n4cnc(C5CC5)n4)C3)C2)CC1 [Example 306, (2S)-2-[4-[6-(3-cyclopropyl-1,2,4-triazol-1-yl)-2-azaspiro[3.3]heptane-2-carbonyl]piperazin-1-yl]-2-(4-fluorophenyl)acetamide]"
4,9.5 nM,"O=C(N1CC(Oc2ccc(Cl)cc2F)C1)N1CC2(CC(n3cnc(C4CC4)n3)C2)C1 [Example 99, (3-(4-chloro-2-fluorophenoxy)azetidin-1-yl)(6-(3-cyclopropyl-1H-1,2,4-triazol-1-yl)-2-azaspiro[3.3]heptan-2-yl)methanone]"
